The results in this text go back to PMC8388802, “Study on the Structure-Activity Relationship of an Antimicrobial Peptide, Brevinin-2GUb, from the Skin Secretion of Hylarana guentheri” (Antibiotics, 2021).

Values after ≈ are worked out from the molar mass of the structure shown. Where a SMILES comes first, the peptide text is derived from it. Bounds are passed on as bounds.

In one assay the test system is MRSA (B042 V2E1 A). It counts as cell-based, Methicillin-resistant Staphylococcus aureus. As for the experimental part:
(§1) The method of antimicrobial assay is based on the Methods for Dilution Antimicrobial Susceptibility Tests for Bacteria that Grow Aerobically from the Clinical and Laboratory Standards Institute (CLSI).The antimicrobial activities of peptides were evaluated against Gram-positive bacteria S. aureus (ATCC 6538), MRSA (NCTC 12493), E. faecalis (NCTC 12493), Gram-negative bacteria E. coli (ATCC CRM 8739), K. pneumoniae (ATCC 43816), P. aeruginosa (ATCC CRM 9027), yeast C. albicans (ATCC CRM 10231) and clinical isolates MRSA (B042 V2E1 A), E. coli (ATCC BAA-2340), K. pneumoniae (ATCC BAA-1705), P. aeruginosa (B004 V2S2 B).
(§2) At the first stage of the assay, 20 μL bacteria were cultured in 100 mL Mueller Hinton Broth (MHB) or Yeast Extract–Peptone–Dextrose broth (YPD-B), respectively, and was incubated overnight. Then, microorganisms were subcultured in 20 mL fresh MHB or YPD-B to achieve cultures in the logarithmic phase (1 × 10^8 CFU/mL), which can be verified by optical density (OD) (The OD of Gram-positive bacteria is 0.23, OD of Gram-negative bacteria is 0.4, and OD of yeast is 0.15), and viable cell counts. Then, the medium was used to dilute the cultures to specific cell densities (Gram-negative and Gram-positive bacteria: 5 × 10^5 CFU/mL; yeast: 1 × 10^6 CFU/mL), which were the final concentrations of bacterial suspensions used in the assay. The peptides were dissolved in DMSO to reach a final concentration of 512 µM. A series of two-fold dilutions ranging from 512 µM to 1 µM were dosed in the 96-well plates.
(§3) Antimicrobial assays were conducted in 96-well plates, which were divided into five groups, including a negative control group (PBS), a positive control group (20 μg/mL norfloxacin for bacteria and 10 μg/mL amphotericin B for yeast), vehicle control (1% DMSO), blank control (MHB or YPD-B), and a peptide group. Each microorganism had five repetitions, and each well contained 1 µL corresponding solution and 99 µL culture. After incubation at 37 °C overnight, the absorbance of each well was tested by a microplate reader (EL808, Biolise BioTek Winooski, Minneapolis, USA) under a 550 nm wavelength. The MIC is the lowest concentration at which no bacterial growth can be observed.
(§4) The next day, 10 µL of every clear well was taken out to be cultured on a Mueller Hinton Agar (MHA) plate and incubated at 37 °C for 16–20 h. The MBC is the lowest concentration without any bacterial colonies, which means at this concentration, the peptide reduces the viability of the pathogen by more than 99.9%.

In another assay the test system is MRSA (NCTC 12493). It counts as cell-based, Methicillin-resistant Staphylococcus aureus. The method, then:
as §1, §2, §3, §4

The next assay concerns E. coli (ATCC BAA-2340). It counts as cell-based, Escherichia coli. As for the experimental part:
as §1, §2, §3, §4

The next assay deals with E. coli (ATCC CRM 8739). The class given is cell-based, Escherichia coli. As for the experimental part:
as §1, §2, §3, §4

Assay [1] relates to P. aeruginosa (ATCC CRM 9027). It counts as cell-based, Pseudomonas aeruginosa. The method, then:
as §1, §2, §3, §4

The subject of assay [2] is P. aeruginosa (B004 V2S2 B). It counts as cell-based, Pseudomonas aeruginosa. As for the experimental part: as §1, §2, §3, §4
Assay [3] has as its system S. aureus (ATCC 6538) biofilm. The class given is cell-based, Staphylococcus aureus. The conditions noted are these: ATCC 6538, 24 h. As for the experimental part:
(§5) The anti-biofilm activities of the peptides against S. aureus (ATCC 6538), MRSA (NCTC 12493), E. faecalis (NCTC 12493), E. coli (ATCC CRM 8739), K. pneumoniae (ATCC 43816), and P. aeruginosa (ATCC CRM 9027) were evaluated.
(§6) The bacteria were inoculated in a different medium (Gram-positive bacteria were in TSB and Gram-negative bacteria were in LB) overnight, and the subculture was conducted in the same medium. When the bacteria reached a specific density, 100 µL of the dilution was added to each well of the 96-well microplate. Then 1 µL of peptide at a series of concentrations, the same concentration in the antimicrobial assay, were added into the well together with the bacteria. The plates were put into a moist shaking incubator with a speed of 200 rpm, and the temperature was set at 37 ℃. After a 24-h incubation, the liquid in the wells was aspirated, and each was washed twice by 100 µL PBS. One hundred µL of methanol were added into each well to stabilise the biofilm. After air-drying, 100 µL crystal violet was used to dye the biofilm, and they were dissolved in the 100 µL glacial acidic acid after drying. The solutions were transferred to a new microplate, and the absorbance of each well was tested by a microplate reader (EL808, Biolise BioTek Winooski, Minneapolis, MN, USA) at 595 nm wavelength. MBIC was the minimum concentration of the peptide showing no biofilm formation.
(§7) The bacteria were inoculated in a different medium (Gram-positive bacteria were in TSB and Gram-negative bacteria were in LB) overnight, and the subculture was conducted in the same medium. When the bacteria reached a specific density, 100 µL of the dilution was added to each well of the 96-well microplates. The plates were put into a moist shaking incubator with a speed of 200 rpm and the temperature was 37 ℃. After a 24 h incubation, the liquid in the wells was aspirated and they were washed twice by 100 µL PBS of each well. The peptides with the same concentrations were diluted in the corresponding medium and 100 µL were added into each well. After a 24-h incubation, the liquid in the wells was aspirated and they were washed twice by 100 µL PBS. One hundred µL of methanol were added into the wells to stabilise the biofilms. After being air-dried, 100 µL crystal violet was used to dye the biofilm, and they were dissolved in the 100 µL glacial acidic acid after drying. The solutions were transferred to a new microplate, and the absorbance of each well was tested by a microplate reader (EL808, Biolise BioTek Winooski, Minneapolis, USA) at 595 nm wavelength.

In assay [4] the test system is K. pneumoniae (ATCC 43816) biofilm. It counts as cell-based, Klebsiella pneumoniae. The conditions noted are these: ATCC 43816, 24 h. The method, then: as §5, §6, §7

Usually MBC stands for the smallest concentration meeting the test's criterion for killing. Lower therefore signals greater bactericidal potency. As a reminder, the MIC is the smallest concentration in the dilution series that meets the test's criterion for growth inhibition. A high value points to a need for much substance. Take `CC[C@H](C)[C@H](NC(=O)[C@@H](NC(=O)CN)C(C)C)C(=O)N[C@H](C(=O)N[C@@H](CCCCN)C(=O)N[C@H](C(=O)N[C@@H](CC(C)C)C(N)=O)[C@@H](C)O)[C@@H](C)CC` [Peptide 7-tB2U-K] (H-GVIIKTL-NH2): the MBC (against MRSA (B042 V2E1 A); in the assay on MRSA (NCTC 12493); with E. coli (ATCC BAA-2340); against E. coli (ATCC CRM 8739); in assay [1]; in assay [2]) was more than 512 µM in each case. In addition, the MIC with MRSA (B042 V2E1 A) is more than 512 µM; against MRSA (NCTC 12493), 256 µM (≈ 190 µg/mL); against E. coli (ATCC BAA-2340), more than 512 µM; against E. coli (ATCC CRM 8739), more than 512 µM; in assay [1], more than 512 µM; in assay [2] it was more than 512 µM. Besides, the MBEC in assay [3] is 512/>512 μM; in assay [4], more than 512 µM. The MBIC in assay [3] was 512/>512 μM; in assay [4], more than 512 µM.
In the case of `CC[C@H](C)[C@H](NC(=O)[C@@H](NC(=O)CN)C(C)C)C(=O)N[C@H](C(=O)N[C@@H](CCCCN)C(=O)N[C@H](C(=O)N[C@@H](CC(C)C)C(=O)N[C@@H](CCCCN)C(=O)NCC(=O)N[C@@H](C)C(=O)N[C@@H](C)C(=O)N[C@@H](CCCCN)C(=O)N[C@H](C(=O)N[C@H](C(N)=O)C(C)C)[C@@H](C)O)[C@@H](C)O)[C@@H](C)CC` [Peptide 14-tB2U-K] (H-GVIIKTLKGAAKTV-NH2), the MBC (against MRSA (B042 V2E1 A); against MRSA (NCTC 12493); against E. coli (ATCC BAA-2340); in the assay on E. coli (ATCC CRM 8739); in assay [1]; in assay [2]) was more than 512 µM throughout. The MIC (against MRSA (B042 V2E1 A); against MRSA (NCTC 12493); against E. coli (ATCC BAA-2340); against E. coli (ATCC CRM 8739); in assay [1]; in assay [2]) was more than 512 µM in each case. In addition, the MBEC in assay [3] and in assay [4] was more than 512 µM each time. Besides, the MBIC in assay [3] and in assay [4] was more than 512 µM each time.
Consider `CC[C@H](C)[C@H](NC(=O)[C@@H](NC(=O)CN)C(C)C)C(=O)N[C@H](C(=O)N[C@@H](CC(=O)O)C(=O)N[C@H](C(=O)N[C@@H](CC(C)C)C(=O)N[C@@H](CCCCN)C(=O)NCC(=O)N[C@@H](C)C(=O)N[C@@H](C)C(=O)N[C@@H](CCCCN)C(=O)N[C@H](C(=O)N[C@H](C(=O)N[C@@H](C)C(=O)N[C@@H](C)C(=O)N[C@@H](CCC(=O)O)C(=O)N[C@@H](CC(C)C)C(=O)N[C@@H](CC(C)C)C(N)=O)C(C)C)[C@@H](C)O)[C@@H](C)O)[C@@H](C)CC` [tB2U-α] (H-GVIIDTLKGAAKTVAAELL-NH2), for which the MBC (in the assay on MRSA (B042 V2E1 A); against MRSA (NCTC 12493); in the assay with E. coli (ATCC BAA-2340); in the assay on E. coli (ATCC CRM 8739); in assay [1]; in assay [2]) was more than 512 µM throughout. Further, the MIC (against MRSA (B042 V2E1 A); with MRSA (NCTC 12493); against E. coli (ATCC BAA-2340); against E. coli (ATCC CRM 8739); in assay [1]; in assay [2]) was more than 512 µM throughout. In addition, the MBEC in assay [3] and in assay [4] was more than 512 µM throughout. For the same compound, the MBIC in assay [3] and in assay [4] was more than 512 µM each time.
As for `CC[C@H](C)[C@H](NC(=O)[C@@H](NC(=O)CN)C(C)C)C(=O)N[C@H](C(=O)N[C@@H](CC(=O)O)C(=O)N[C@H](C(=O)N[C@@H](CC(C)C)C(=O)N[C@@H](CCCCN)C(=O)NCC(=O)N[C@@H](C)C(=O)N[C@@H](C)C(=O)N[C@@H](CCCCN)C(=O)N[C@H](C(=O)N[C@H](C(=O)N[C@@H](C)C(=O)N[C@@H](C)C(=O)N[C@@H](CCC(=O)O)C(=O)N[C@@H](CC(C)C)C(=O)N[C@@H](CC(C)C)C(=O)N[C@@H](CCCNC(=N)N)C(=O)N[C@@H](CCCCN)C(=O)N[C@@H](C)C(=O)N[C@@H](Cc1c[nH]cn1)C(N)=O)C(C)C)[C@@H](C)O)[C@@H](C)O)[C@@H](C)CC` [tB2U] (H-GVIIDTLKGAAKTVAAELLRKAH-NH2), the MBC against MRSA (B042 V2E1 A) is more than 512 µM; against MRSA (NCTC 12493), more than 512 µM; in the assay with E. coli (ATCC CRM 8739), 128 µM (≈ 304 µg/mL); in assay [1] it was more than 512 µM; in assay [2], more than 512 µM. For the same compound, the MIC in the assay on MRSA (B042 V2E1 A) was more than 512 µM; in the assay on MRSA (NCTC 12493), more than 512 µM; in the assay on E. coli (ATCC CRM 8739), 128 µM (≈ 304 µg/mL); in assay [1], more than 512 µM; in assay [2], more than 512 µM. The MBEC in assay [3] and in assay [4] was more than 512 µM in each case. Also, the MBIC in assay [3] and in assay [4] was more than 512 µM throughout.
